Entries after “also recorded” stand apart in the source; their conditions may differ.
Tests used:
[1] = system: Colon cancer cells (HCT-116); experiment: Actin filament staining (phalloidin) and cell shape in colon cancer cells; assay type: cell-based; details: 500 μM, 5 hours; FIG. 7B
Procedure: Colon cancer cells (HCT-116) were incubated for 5 hours with either no etodolac (control cells) or 500 μM. R-etodolac (test cells). The cells were then fixed and the intracellular actin filaments were stained with phalloidan conjugated to a fluorogenic dye (Alexa-green). The control cells (FIG. 7A) had actin filaments arranged in rigid structures (stress fibers) that confer the “stretched” shape often seen in normal cells.

[2] = system: peripheral blood lymphocytes; details: for number of peripheral blood lymphocytes migrating through the membrane to IP-10: overnight incubation at 0 μM to 500 μM, FIG. 4
[3] = system: peripheral blood lymphocytes; experiment: Chemokinesis: migration of peripheral blood lymphocytes through a membrane, no etodolac in lower well; assay type: cell-based, human; details: overnight incubation at 250 μM, versus cells without etodolac; FIG. 2
Procedure: Cell migration was measured in a 24-well modified Boyden chamber (Transwell, Corning-Costar, N.Y.). The recombinant human IP-10 chemokine (R&D Systems, McKinley Place, Nebr.) was diluted in RPMI-1640 medium at 200 ng/ml, and used to evaluate the chemotactic properties of lymphocytes from B-CLL patients. Polycarbonate membranes with pore size of 3 μm were used. A total of […] of chemokines or control medium was added to the bottom wells, and […] of 2 to 5.0×10^6 cells/ml cells resuspended in RPMI-1640 were added to the top wells. […] The membranes were then removed, and the cells present on the bottom well were quantified by flow cytometry. For cell quantification, a fixed acquisition time of 30 seconds was used per sample, and beads were run during each experiment to ensure a reproducible acquisition. All assays were performed in triplicate. Peripheral blood lymphocytes were incubated overnight in medium containing a racemic mixture of etodolac, the R-enantiomer of etodolac or the S-enantiomer of etodolac at 250 μM concentration. Control cells were incubated in the same medium without etodolac. The cells were then added to the upper wells of chemotaxis chambers divided by a 5 to 8 micron membrane. No etodolac was present in the lower portion of each well. FIG. 2 provides a graph of the number of peripheral blood lymphocytes crossing through the membranes into the lower well.

[4] = system: chronic lymphocytic leukemia cells; experiment: Chemokinesis: migration of chronic lymphocytic leukemia cells through a membrane, no etodolac or chemokine in lower well; assay type: cell-based, human; details: overnight incubation at 200 μmol concentration, versus cells without etodolac; FIG. 1
Procedure: Cell migration was measured in a 24-well modified Boyden chamber (Transwell, Corning-Costar, N.Y.). The recombinant human IP-10 chemokine (R&D Systems, McKinley Place, Nebr.) was diluted in RPMI-1640 medium at 200 ng/ml, and used to evaluate the chemotactic properties of lymphocytes from B-CLL patients. Polycarbonate membranes with pore size of 3 μm were used. A total of […] of chemokines or control medium was added to the bottom wells, and […] of 2 to 5.0×10^6 cells/ml cells resuspended in RPMI-1640 were added to the top wells. […] The membranes were then removed, and the cells present on the bottom well were quantified by flow cytometry. For cell quantification, a fixed acquisition time of 30 seconds was used per sample, and beads were run during each experiment to ensure a reproducible acquisition. All assays were performed in triplicate. B-Chronic lymphocytic leukemia (B-CLL) cells were pre-incubated in the presence of various concentrations of etodolac for 16 hours, prior to loading in the upper part of a modified Boyden chamber with pore size of 3 μm. The lower reservoir contained either medium alone, or the CXCR3-binding chemokine IFN-inducible protein 10 (IP-10, 200 ng/ml). After 2 hours of incubation, the cells that traveled through the polycarbonate membrane were enumerated by flow cytometry. […] Control cells were incubated in the same medium without etodolac. The cells were then added to the upper wells of chemotaxis chambers divided by a 5 to 8 micron membrane. No etodolac was present in the lower portion of each well. FIG. 1 provides a graph of the number of chronic lymphocytic leukemia cells crossing through the membranes into the lower well.

[5] = system: Chronic lymphocytic leukemia (B-CLL) cells; experiment: B-CLL colony morphology, aggregation and viability by light microscopy; assay type: cell-based, human; details: 24 hours
Procedure: Chronic lymphocytic leukemia (B-CLL) cells were incubated for 24 hr in medium containing the R-enantiomer of etodolac at 0.0 μM, 100 μM and 250 μM. concentrations. The cell morphology was observed under light microscopy. Control cells incubated without etodolac grew in large, flat colonies (FIG. 6A). However, after incubation for 24 hours with either 100 μM or 250 μM.

[6] = system: B-CLL cells; details: for chemotactic response of B-CLL cells to IP-10: overnight incubation at 12.5 μM to 500 μM, B-CLL patients n=4, FIG. 3
[7] = system: B-CLL cells; experiment: Ex vivo viability (erythrosin B) of B-CLL cells isolated from patients before and after etodolac challenge; assay type: in vivo, human; details: for % Increased cell death: after versus before etodolac
Text: Written informed consent was obtained to procure peripheral blood from all patients and with normal healthy volunteers. Patients had to have B-CLL according to National Cancer Institute (NCI) criteria of any Rai stage. Criteria for requiring therapy were as follows: disease-related symptoms, anemia and/or thrombocytopenia, bulky lymphadenopathy, and/or clinically relevant splenomegaly. Mononuclear cells were isolated by gradient centrifugation through Ficoll-Paque. […] At the indicated times, viability assays were performed by erythrosin B dye exclusion. To determine if etodolac could reduce B-CLL survival in vivo, six B-CLL patients were enrolled in a first step challenge assay for etodolac sensitivity. Each patient received one 400 mg etodolac tablet, and a second tablet 12 hours later. B-CLL cells were isolated just before the first tablet, and 12 hours after the second. B-CLL cells recovered from patients were then cultured with 20% autologous plasma and apoptosis rates were measured, either before or after etodolac treatment. […] The five etodolac-sensitive patients were then enrolled in a second-step clinical trial in which they took etodolac for one month (400 mg bid). […] After 72 hour of incubation, viability assays were performed by erythrosin B staining. Numbers indicate the % of viable cells.

[8] = system: circulating lymphocyte counts; experiment: Clinical trial of etodolac in B-CLL patients: circulating lymphocyte counts, lymphadenopathy; assay type: in vivo, human
Procedure: To determine if etodolac could reduce B-CLL survival in vivo, six B-CLL patients were enrolled in a first step challenge assay for etodolac sensitivity. Each patient received one 400 mg etodolac tablet, and a second tablet 12 hours later. B-CLL cells were isolated just before the first tablet, and 12 hours after the second. B-CLL cells recovered from patients were then cultured with 20% autologous plasma and apoptosis rates were measured, either before or after etodolac treatment. […] The five etodolac-sensitive patients were then enrolled in a second-step clinical trial in which they took etodolac for one month (400 mg bid).

[9] = system: peripheral blood leukocytes; experiment: Peripheral blood leukocyte counts in normal mice after etodolac by gastric lavage; assay type: in vivo; details: blood at 4 hr, 24 hr, 158 hr and 14 days, FIG. 5
Procedure: Normal mice were given 25 mg/kg etodolac or 100 mg/kg etodolac by gastric lavage. Control mice received no etodolac. Blood was drawn from each mouse at 4 hr, 24 hr, 158 hr and 14 days after etodolac administration and peripheral blood leukocyte counts were done.

In the case of `CCc1cccc2c3c([nH]c12)[C@@](CC)(CC(=O)O)OCC3` [R-etodolac], the “actin filaments and cell shape of HCT-116 cells” value [1] is reported as “no conventional stress fibers are observed and the cells assume a rounded shape”, the “number of peripheral blood lymphocytes migrating through the membrane to IP-10” value (“number … to IP-10” for short) [2] is reported as “less cell migration than did the racemic mixture” and the “number of peripheral blood lymphocytes crossing through the membranes into the lower well” value [3] is reported as “did not induce substantial chemokinesis”. For the same compound, the “number of chronic lymphocytic leukemia cells crossing through the membranes into the lower well” value [4] was “more cells migrated through the membrane”, the “total number of B-CLL cells or their viability” value ([5]; 100 μM or 250 μM) was “No effect” and the “B-CLL cell movement and colony morphology” value ([5]; 100 μM, FIG. 6B) was “the cells migrated toward each other, the diameter of the colonies was reduced, and multiple layers of cells were present in the colonies”. The “B-CLL cell movement and colony morphology” value ([5]; 250 μM, FIG. 6C) was “the cells migrated toward each other and the diameter of the colonies was reduced; also recorded: the cells migrated even more toward each other, the diameter of the colonies was even further reduced and even more layers of cells were present in the colonies” and the “chemotactic response of B-CLL cells to IP-10” value (“chemotactic response” below) [6] was “enhanced B-CLL chemotaxis”.
With `CCc1cccc2c3c([nH]c12)[C@](CC)(CC(=O)O)OCC3` [S-etodolac] the “number … to IP-10” value [2] was “less cell migration than did the racemic mixture”, the “number of peripheral blood lymphocytes crossing through the membranes into the lower well” value [3] was “did not induce substantial chemokinesis” and the “number of chronic lymphocytic leukemia cells crossing through the membranes into the lower well” value [4] was “more cells migrated through the membrane”. For the same compound, the “chemotactic response” value [6] was “enhanced B-CLL chemotaxis”.
With `CCc1cccc2c3c([nH]c12)C(CC)(CC(=O)O)OCC3` (racemic) [etodolac] the “% Increased cell death” value ([7]; patient #1) was 13%, the “% Increased cell death” value ([7]; patient #2) was 57% and the “% Increased cell death” value ([7]; patient #3) was 69%. For the same compound, the “% Increased cell death” value ([7]; patient #4) was 0%, the “% Increased cell death” value ([7]; patient #5) was 34% and the “% Increased cell death” value ([7]; patient #6) was 41%. For the same compound, the “patients whose cells displayed more ex vivo spontaneous apoptosis after in vivo etodolac challenge than before” value ([7]; six B-CLL patients, two 400 mg tablets 12 hours apart) was 5 out of 6, the changes in lymphadenopathy ([8]; B-CLL patients on etodolac therapy) was “did not have clinically obvious changes in lymphadenopathy” and the “B-CLL counts when etodolac treatment was interrupted” value ([8]; after one month of 400 mg bid) was “rebounded to pre-treatment levels”. For the same compound, the “drop of circulating lymphocyte counts” value ([8]; two retreated B-CLL patients, over one month, results not shown) was about 50%, the “etodolac concentration up to which the number of migrating peripheral blood lymphocytes increased” value ([2]; IP-10 in lower well) was 100 µM and the “concentration at which chemotaxis of peripheral blood lymphocytes decreased, due to a loss of cell viability” value ([2]; human) was at least 250 µM. The “number … to IP-10” value [2] was “increased with etodolac concentration”, the “number of peripheral blood leukocytes” value ([9]; 25 mg/kg by gastric lavage) was “reduced” and the “number of peripheral blood leukocytes” value ([9]; 100 mg/kg by gastric lavage) was “reduced”. For the same compound, the “number of peripheral blood lymphocytes crossing through the membranes into the lower well” value [3] was “more cells migrated through the membrane”, the “number of chronic lymphocytic leukemia cells crossing through the membranes into the lower well” value [4] was “more cells migrated through the membrane” and the “expression of the CXCR receptor, as assessed by antibody staining” value ([6]; B-CLL cells, data not shown) was “not due to increased expression of the CXCR receptor”. For the same compound, the “concentration at which chemotaxis of B-CLL cells decreased, due to a loss of cell viability” value ([6]; human, 16 h) was at least 500 µM and the “chemotactic response” value [6] was “increased the chemotactic response”.
